# Paper PMC9241695, “Selective Metal Chelation by a Thiosemicarbazone Derivative Interferes with Mitochondrial Respiration and Ribosome Biogenesis in Candida albicans” (Microbiology Spectrum, 2022)
# Read-outs that look alike come from different tables or passages of the source.
# Experiments:
# C. neoformans H99 = assay: Antifungal susceptibility testing, microbroth dilution MIC; assay type: cell-based; settings: Cryptococcus neoformans, read-out: MIC (μg/mL) against fungi H99
# From the text: (§1) Compound library. The thiosemicarbazone derivatives Triapine and COTI-2 were purchased from Med Chem Express (MCE). The other 87 thiosemicarbazones used in this study were previously synthesized by our collaborators (1, 2). Their structures are shown in Table 1 and Table S1 to help the reader clearly understand the relationship between structure and activity.
# (§2) Strains and culture conditions. Clinically derived C. albicans isolates, including G5, F5, and Gu5, were kindly provided by Professor Joachim Morschhäuser of the University of Würzburg. Other clinical C. albicans isolates were kindly donated by Professor Qingguo Qi of Shandong University and Qianfoshan Hospital of Shandong Province Other Candida strains were obtained from Jinan Central Hospital.
# (§3) The zap1 mutant and its complemented strain were kindly provided by Professor Aaron P. Mitchell of Carnegie Mellon University (3). The C. neoformans strains used in this study was kindly donated by Professor Guojian Liao of Southwest University and A. fumigatus strain used in this study was provided by Professor Ling Lu of Nanjing Normal University. […]
# (§4) Antifungal susceptibility testing. To determine in vitro antifungal activities, the microbroth dilution method was carried out in RPMI1640 medium according to the guidelines of the Clinical and Laboratory Standards Institute (4, 5). The initial concentration in RPMI1640 medium was 1 × 10^3 CFU/mL for the C. albicans and C. neoformans suspensions but 1 × 10^4 CFU/mL for A. fumigatus. The range of final drug concentrations was 0.0156–64 μg/mL. The plates were incubated at35°C for 24 […]
# (§5) h (for C. albicans, C. krusei, C. tropicalis, C. parapsilosis) or 48 h (for C. neoformans, A. fumigatus). The MIC was determined based on visible growth inhibition compared with the control. All experiments were performed in duplicate. […]
# A. fumigatus AF293 = assay: as above; assay type: cell-based; settings: Aspergillus fumigatus, read-out: MIC (μg/mL) against fungi AF293
# From the text: as §1, §2, §3, §4, §5
# C. albicans SC5314 [1] = assay: as above; assay type: cell-based; settings: Candida albicans, read-out: MIC (μg/mL) against fungi SC5314
# From the text: as §1, §2
# (§6) The zap1 mutant and its complemented strain were kindly provided by Professor Aaron P. Mitchell of Carnegie Mellon University (3). The C. neoformans strains used in this study was kindly donated by Professor Guojian Liao of Southwest University and A. fumigatus strain used in this study was provided by Professor Ling Lu of Nanjing Normal University. Before in vitro and in vivo experiments, all C. albicans strains were grown on YPD agar plates. After culturing at 30°C for 24 h, colonies of each strain were cultured in liquid YPD medium at 30°C with continuous shaking […]
# as §4, §5
# A. fumigatus 1161 = assay: Microbroth dilution MIC80; assay type: cell-based; settings: Aspergillus fumigatus
# From the text: as §1, §2, §6, §4, §5
# [2] = Cytotoxicity testing (MTT); assay type: cell-based, human; settings: human, 48 h, MTT
# Experimental: (§7) h (for C. albicans, C. krusei, C. tropicalis, C. parapsilosis) or 48 h (for C. neoformans, A. fumigatus). The MIC was determined based on visible growth inhibition compared with the control. All experiments were performed in duplicate.
# (§8) Cytotoxicity testing. The cell lines HK2 and 16HBE were used to evaluate the cytotoxicity of 19ak, 19k and 19t. Cells in DMEM containing 10% fetal bovine serum (Gibco) were seeded in 96-well tissue culture plates at a cell density of 1 × 10^4 cells/mL and incubated for 24 h to allow adhesion. The supernatant was then replaced with fresh DMEM containing various concentrations of 19ak, 19k and 19t. The plates were subsequently incubated for an additional 48 h at 37°C with 5% CO2, followed by the addition of 10 μL of MTT solution to each well and incubation at 37°C for 4 h.
# (§9) The effects of the compounds on cell proliferation were detected by measuring the absorbance at 570 nm in a microplate reader (BioTek, VT, USA). Three independent experiments were conducted. […]
# [3] = system: human renal epithelial cell line HK2; assay: Cytotoxicity testing (MTT); assay type: cell-based; settings: ratio of IC50 against HK2 to MIC80 against C. albicans SC5314
# Experimental: as §7, §8, §9
# [4] = system: human bronchial epithelial cell line 16HBE; assay: Cytotoxicity testing (MTT); assay type: cell-based; settings: ratio of IC50 against 16HBE to MIC80 against C. albicans SC5314
# Experimental: as §7, §8, §9
# C. parapsilosis CP001 = assay: Microbroth dilution MIC80; assay type: cell-based, Candida parapsilosis; settings: Lodderomyces parapsilosis, CP001
# From the text: as §1, §2, §6, §4, §5
# C. albicans G5 = assay: microbe, parasite or virus in culture; assay type: cell-based; settings: Candida albicans, G5
# From the text: as §1, §2, §6, §4, §5
# C. albicans Gu5 = assay: microbe, parasite or virus in culture; assay type: cell-based; settings: Candida albicans, GU5
# From the text: as §1, §2, §6, §4, §5
# C. albicans CA3 = assay: Microbroth dilution MIC80; assay type: cell-based; settings: Candida albicans, CA3
# From the text: as §1, §2, §6, §4, §5
# C. albicans YEM13 = assay: Microbroth dilution MIC80; assay type: cell-based; settings: Candida albicans
# From the text: as §1, §2, §6, §4, §5
# C. albicans 28A = assay: Microbroth dilution MIC80; assay type: cell-based; settings: Candida albicans, 28A
# From the text: as §1, §2, §6, §4, §5
# C. albicans 28I = assay: Microbroth dilution MIC80; assay type: cell-based; settings: Candida albicans, 28I
# From the text: as §1, §2, §6, §4, §5
# C. albicans 24g = assay: Microbroth dilution MIC80; assay type: cell-based; settings: Candida albicans, 24G
# From the text: as §1, §2, §6, §4, §5
# C. albicans 11e = assay: Microbroth dilution MIC80; assay type: cell-based; settings: Candida albicans, 11E
# From the text: as §1, §2, §6, §4, §5
# C. neoformans 108 = assay: Microbroth dilution MIC80; assay type: cell-based; settings: Cryptococcus neoformans, 108
# From the text: as §1, §2, §6, §4, §5
# C. albicans CA1 = assay: Microbroth dilution MIC80; assay type: cell-based; settings: Candida albicans, CA1
# From the text: as §1, §2, §6, §4, §5
# C. albicans DSY654 = assay: Microbroth dilution MIC80; assay type: cell-based; settings: Candida albicans
# From the text: as §1, §2, §6, §4, §5
# C. albicans F5 = assay: Microbroth dilution MIC80; assay type: cell-based; settings: Candida albicans, F5
# From the text: as §1, §2, §6, §4, §5
# C. albicans 28D = assay: Microbroth dilution MIC80; assay type: cell-based; settings: Candida albicans, 28D
# From the text: as §1, §2, §6, §4, §5
# C. albicans YEM15 = assay: Microbroth dilution MIC80; assay type: cell-based; settings: Candida albicans, YEM15
# From the text: as §1, §2, §6, §4, §5
# C. albicans CA4 = assay: Microbroth dilution MIC80; assay type: cell-based; settings: Candida albicans, CA4
# From the text: as §1, §2, §6, §4, §5
# C. albicans 11f = assay: Microbroth dilution MIC80; assay type: cell-based; settings: Candida albicans, 11F
# From the text: as §1, §2, §6, §4, §5
# C. tropicalis CT2 = assay: Microbroth dilution MIC80; assay type: cell-based; settings: Candida tropicalis, CT2
# From the text: as §1, §2, §6, §4, §5
# C. krusei CK1 = assay: Microbroth dilution MIC80; assay type: cell-based, Candida krusei; settings: Pichia kudriavzevii, CK1
# From the text: as §1, §2, §6, §4, §5
# [5] = Cytotoxicity testing (MTT); assay type: cell-based, human; settings: human, HepG2 cells (hepatocellular carcinoma cell line)
# [6] = system: human hepatocellular carcinoma cell line HepG2; assay: Cytotoxicity testing (MTT); assay type: cell-based; settings: ratio of IC50 against HepG2 to MIC80 against C. albicans SC5314
# C. albicans SC5314 [7] = assay: Minimal fungicidal concentration (MFC); assay type: cell-based; settings: Candida albicans, read-out: MFC against C. albicans SC5314
# C. albicans SC5314 [8] = assay: qPCR of genes associated with ribosome biogenesis; assay type: cell-based, Candida albicans; settings: CPX 0.5 or 2 μg/mL 8 h; DFO 64 µg/mL 6 h; TPEN 0.05 or 0.2 μg/mL 6 h
# Experimental: Determination of SOD activity. SOD activity was measured using the Superoxide Dismutase Activity Assay Kit (Njjcbio, Nanjing, China) following the manufacturer's instructions. An overnight culture of C. albicans SC5314 was adjusted to 1 × 10^7 cells/mL with RPMI1640 medium and treated with 19ak at a final concentration of 0, 0.125, 0.25, 0.5, or 1 μg/mL for 6 h. After collection by centrifugation, the cells were broken by glass beads in extraction buffer and centrifuged at 4°C. The absorbance of the supernatant of each sample was measured with a microplate reader at450 nm.
# Determination of catalase (CAT) activity. CAT activity was measured by using a Catalase Assay Kit (Solarbio, Beijing, China) following the manufacturer's instructions. An overnight culture of C. albicans SC5314 was adjusted to 1 × 10^6 cells/mL with RPMI1640 medium and treated as described above for SOD activity.
# The decomposition of H2O2 is directly accompanied by a decrease in absorbance at 240 nm, and the difference in absorbance per unit time (ΔA240) is a measure of […]
# Quantitative real-time polymerase chain reaction (qPCR) analysis. C. albicans SC5314 cells (1 × 10^6 cells/mL) were incubated with or without 19ak (0.5,2 […]
# Total RNA was extracted using the hot phenol method, and the RNA quality was analyzed using a spectrophotometer (Eppendorf, Hamburg, Germany). The RNA was converted to cDNA using a cDNA Reverse
# Transcription kit (Accurate Biotechnology, Hunan, China). PCR detection based on SYBR Green was performed on an Eppendorf real-time PCR system (Eppendorf, […]
# Drug resistance study. Drug resistance studies were carried out by repeatedly treating C. albicans with an antifungal agent followed by MIC determination using […]
# [9] = AF293, standard strain of A. fumigatus, 48 h
smiles,measurement,setting,value
C/C(=N\NC(=S)Nc1ccccc1)c1ccccn1 [Compound 19ac],MIC,"C. neoformans H99; H99, 48 h",0.25 µg/mL
same,MIC,"A. fumigatus AF293; AF293, 48 h",16 µg/mL
same,MIC,"C. albicans SC5314 [1]; SC5314, 24 h",2 µg/mL
"C[C@@H](c1ncncc1F)[C@](O)(Cn1cncn1)c1ccc(F)cc1F [VOR, voriconazole, reference compound]",MIC,A. fumigatus AF293; [9],0.25 µg/mL
same,MIC80,"A. fumigatus 1161; A. fumigatus 1161, read-out: MIC80",0.25 µg/mL
"S=C(N/N=C1\CCCc2cccnc21)N1CCN(c2ccccn2)CC1 [COTI-2, 4-(pyridine-2-yl)-N-([(8E)-5,6,7,8-tetrahydroquinolin-8-ylidene]amino) piperazine-1-carbothioamide, reference compound]",MIC,"C. neoformans H99; H99, 48 h",0.0625 µg/mL
same,MIC,"A. fumigatus AF293; AF293, 48 h",1 µg/mL
same,MIC,"C. albicans SC5314 [1]; SC5314, 24 h",0.5 µg/mL
C/C(=N\NC(=S)Nc1ccc(Br)cc1)c1ccccn1 [Compound 19t],MIC,"C. neoformans H99; H99, C. neoformans wild-type strain, 48 h",0.031 µg/mL
same,MIC,A. fumigatus AF293; [9],0.125 µg/mL
same,IC50 at 48 h,"[2]; 16HBE cells (bronchial epithelial cell line), 16HBE cells",1.43 µg/mL
same,IC50 at 48 h,"[2]; HK2 cells (renal epithelial cell line), HK2 cells",3.46 µg/mL
same,Selectivity index HK2,[3],6.918
same,Selectivity index 16HBE,[4],2.858
same,MIC,"C. albicans SC5314 [1]; SC5314, C. albicans wild-type strain, RPMI1640, 35°C, 24 h",0.5 µg/mL
same,MIC80,C. parapsilosis CP001,0.5 µg/mL
same,MIC80,C. albicans G5,1 µg/mL
same,MIC80,C. albicans Gu5,1 µg/mL
same,MIC80,A. fumigatus 1161; 1161,0.125 µg/mL
same,MIC80,C. albicans CA3,0.25 µg/mL
same,MIC80,C. albicans YEM13,1 µg/mL
same,MIC80,C. albicans 28A,0.25 µg/mL
same,MIC80,C. albicans 28I,0.5 µg/mL
same,MIC80,C. albicans 24g,0.25 µg/mL
same,MIC80,C. albicans 11e,0.5 µg/mL
same,MIC80,C. neoformans 108,0.031 µg/mL
same,MIC80,C. albicans CA1,0.25 µg/mL
same,MIC80,C. albicans DSY654,0.25 µg/mL
same,MIC80,C. albicans F5,0.25 µg/mL
same,MIC80,C. albicans 28D,0.25 µg/mL
same,MIC80,C. albicans YEM15,1 µg/mL
same,MIC80,C. albicans CA4,0.25 µg/mL
same,MIC80,C. albicans 11f,0.25 µg/mL
same,MIC80,C. tropicalis CT2,0.5 µg/mL
same,MIC80,C. krusei CK1,0.5 µg/mL
same,IC50,[5],1.39 µg/mL
same,Selectivity index HepG2,[6],2.778
same,MFC,C. albicans SC5314 [7],64 µg/mL
"CC(=O)N(O)CCCCCNC(=O)CCC(=O)N(O)CCCCCNC(=O)CCC(=O)N(O)CCCCCN [DFO, deferoxamine]",Expression of genes associated with ribosome biogenesis (qPCR),C. albicans SC5314 [8],minor effects
CCC/C(=N\NC(=S)Nc1ccccc1Br)c1ccccn1 [Compound 19v],MIC,"C. neoformans H99; H99, 48 h",0.25 µg/mL
same,MIC,"A. fumigatus AF293; AF293, 48 h",4 µg/mL
same,MIC,"C. albicans SC5314 [1]; SC5314, 24 h",1 µg/mL
